{"source": "patent CN111214447A", "about": "“一种甲磺酸沙芬酰胺固体组合物及其制备方法” (Beijing Wanquan Dezhong Medical Biological Technology Co Ltd, priority 2018, dated 2020)", "origin": "cited, not measured here", "settings": "aqueous medium, pH=7", "data": [{"smiles": "C[C@H](NCc1ccc(OCc2cccc(F)c2)cc1)C(N)=O", "note": "[沙芬酰胺, 甲磺酸]", "values": [{"measurement": "solubility", "value": 10, "unit": "µg/mL"}]}]}
